Measured values from patent US20230233584A1, “EXTENDED RELEASE 5-HT RECEPTOR AGONISTS FOR NEUROLOGICAL CONDITIONS” (Diamond Therapeutics Inc., priority 2020, published 2023).

Columns and labels:
Long Evans rats [1] = assay: 5CSRTT, acute dosing, 10 s ITI, premature (PREM) and perseverant (PSV) responses; type: in vivo
Excerpt: Using a longer duration between stimulus and reward, the 5CSRTT study measures premature (PREM) and perseverant (PSV) responses. PREM/PSV responses were increased by increasing the ITI from 5 s (baseline) to 10 s (test condition). […] Both PREM and PSV behaviors are examples of executive cognitive function, likely involving areas of the prefrontal cortex, a brain region rich in 5-HT2A receptors.

Long Evans rats [2] = assay: 5-choice serial reaction time task (5CSRTT), acute dosing, standard conditions; type: in vivo; settings: for pro-cognitive effect measured as % hit: p=0.05
Protocol: General: Experiments were conducted to test psilocybin doses in the range of 0.01-0.2 mg/kg psilocybin administered S.C. across progressive ratio (PR) and 5-choice serial reaction time task (5CSRTT) to examine the effect of psilocybin on endophenotypes of motivation and attention. In each study, a population of out-bred Long Evans rats was first tested as a group for response to the PR and 5CSRTT. Each group was then divided into subgroups by tertiles according to performance, and then exposed to various dose levels immediately prior to re-testing at various psilocybin dose levels.
The 5CSRTT involves evaluating test subject response to a brief visual stimulus (Higgins, Guy & Silenieks, Leonardo. (2017). Rodent Test of Attention and Impulsivity: The 5-Choice Serial Reaction Time Task: The 5-Choice Serial Reaction Time Task. 10.1002/cpph.27). Animals are trained to make a nose-poke response to a stimulus location in order to collect a food reward. The task allows the experimenter to measure animal performance in multiple domains including: • Attention • Impulsivity • Perseveration • Speed of response
A strength of the test is its flexible configuration to challenge test subjects: • Standard test conditions (0.75 s stimulus duration (SD), 5 s inter-trial interval (ITI), 100 trials) • Multiple short stimulus duration (mSD) (0.03-1 s SD) • Fixed long ITI (5 s vs. 10 s ITI) • Multiple ultrashort ITI (2-5 s ITI) • Extended 250 trials
Asterisk (*) indicates statistical significance vs. vehicle. (FIG. 3A).
When this population is segmented into tertiles according to performance based on accuracy (% correct, calculated as # correct/(# correct+# incorrect)*100), the lowest performing tertile (N=8) are considered to be low attentive and potentially representative of a low attentive endophenotype of depression (FIG. 6A). Low attentive rats also score poorly on % hit (FIG. 6B) and have a slower response speed (FIG. 6D). […] Asterisk (*) indicates statistical significance vs. vehicle.

[3] = 0.05 mg/kg S.C., 24 rats, standard conditions
[4] = 0.05-0.1 mg/kg S.C., standard conditions

CN(C)CCc1c[nH]c2cccc(OP(=O)(O)O)c12 [psilocybin, 4-phosphoryloxy-N,N-dimethyltryptamine]
PREM and PSV responses (Long Evans rats [1]; 0.05 mg/kg S.C., 24 rats, p=0.05): increase
premature responses and perseverative responses (Long Evans rats [1]; 0.05 and 0.1 mg/kg, low responders (N=8), p<0.01 vs vehicle): marked increases
procognitive effect measured as % correct (Long Evans rats [2]; [3]): slight non-significant increase
pro-cognitive effect measured as % hit (Long Evans rats [2]; [3]): increased
pro-cognitive effect measured as % hit (Long Evans rats [2]; 0.05 mg/kg and 0.1 mg/kg S.C., low performers): increased
response speed (Long Evans rats [2]; 0.05 mg/kg, low attentive cohort compared with vehicle): increased response speed
performance: response speed, number of trials completed (Long Evans rats [2]; [4]): no effect on response speed, or number of trials completed
premature or perseverative responses (Long Evans rats [2]; [4]): no effect on premature or perseverative responses
pro-cognitive effect measured as % correct (Long Evans rats [2]; 0.05 and 0.1 mg/kg S.C., low performers): slight non-significant increase
effect on accuracy (% correct and % hit) (Long Evans rats [2]; 0.05 and 0.1 mg/kg, low attentive subgroup (N=8) compared with vehicle): strongly evident
detrimental effects on performance (motivation, motor control, attention, response speed) (Long Evans rats [2]; low doses used in PR and 5CSRTT studies (0.025-0.2 mg/kg S.C.)): no detrimental effects
